Laboratory results taken from the supplement of paper PMC11208160.

Experiment: recombinant barcode read abundance after kanamycin selection (control-corrected) (log10(CPM+1)); higher = more efficient recombination; sequences stand for … in AGTGCAGAGAAAATCGGCCAGTTTTCTCTGCCTGCAGTCCGCATGCCGT…AGATTTATGCAGCGGACTGCCTTTCTCCCAAAGTGATAAACCGGACAGTATCATGGACCGGTTTTCCCGGTAATCCGTATTTGCAAGGTTGGTTTCACT; site = the 11-nt target
Description: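 Pooled E. coli target-specificity screen for the IS621 bridge recombinase. Each library plasmid pairs an 11-nt target (CT core) with a bridge RNA whose target-binding loop (9-nt LTG + 4-nt RTG) is reprogrammed; the rest of the 177-nt WT IS621 bridge RNA scaffold is fixed. The plasmid is co-electroporated with a WT donor plasmid; recombinase is induced with 0.1 mM IPTG and recombinants are selected on kanamycin. Recombinant barcodes are sequenced, converted to CPM, averaged over two biological replicates and corrected by the unselected control CPM. Molecule = full bridge RNA written as DNA: LTG = specificity nt 1-9, RTG = reverse complement of specificity nt 8-11, in the WT scaffold.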
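Further: IS621 recombinase and bridge RNA in Escherichia coli cells.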

“AATTGTCCTTGGGTTCTAACCTGTTGCTT (site AATTGTCCTAA)” and “AATTGTCCTTGGGTTCTAACCTGTTGCTT (site AATTGTCCTAC)” are within 0.2 log units of each other in “recombinant barcode read abundance (log10)” value: 0.246 for the first, 0.257 for the second.

“AATTGTCCTTGGGTTCTAACCTGTTGCTT (site AATTGTCCTAG)” and “AATTGTCCTTGGGTTCTAACCTGTTGCTT (site AATTGTCCTAT)” are within 0.2 log units of each other in “recombinant barcode read abundance (log10)” value: 0.0453 for the first, 0.125 for the second.

Compared with “AATTGTTCTTGGGTTCTAACCTGTTGCCT (site AATGCTTCTAG)”, “AATTGTTCTTGGGTTCTAACCTGTTGCCT (site AATTGTTCTAG)” is higher in “recombinant barcode read abundance (log10)” value: 0.028 for the first, 0.253 for the second.

“AATTTCTCTTGGGTTCTAACCTGTTGCCT (site AATTTCTCTAG)” and “AATTTCTCTTGGGTTCTAACCTGTTGCCT (site CATTTCTCTAG)” are within 0.2 log units of each other in “recombinant barcode read abundance (log10)” value: 0.0321 for the first, 0.0907 for the second.

First: AATTTCTCTTGGGTTCTAACCTGTTGCCT (site GATTTCTCTAG)
Second: AATTTCTCTTGGGTTCTAACCTGTTGCCT (site TATTTCTCTAG)
The “recombinant barcode read abundance (log10)” value of the first is higher: 0.496 for the first, 0.0924 for the second.

Going from “ACAAAGACTTGGGTTCTAACCTGTTGCGC (site ACAAAGACTGC)” to “ACAAAGACTTGGGTTCTAACCTGTTGCGC (site ACACAGACTGC)”, the “recombinant barcode read abundance (log10)” value falls from 0.656 to 0.242.

“ACAAAGACTTGGGTTCTAACCTGTTGCGC (site ACAGAGACTGC)” and “ACAAAGACTTGGGTTCTAACCTGTTGCGC (site ACATAGACTGC)” are within 0.2 log units of each other in “recombinant barcode read abundance (log10)” value: 0.326 for the first, 0.137 for the second.

Compared with “ACAAAGGCTTGGGTTCTAACCTGTTGCGG (site ACAAAAGCTCC)”, “ACAAAGGCTTGGGTTCTAACCTGTTGCGG (site ACAAAGGCTCC)” is higher in “recombinant barcode read abundance (log10)” value: 1.69 for the first, 2.51 for the second.

Going from “ACAAGACCTTGGGTTCTAACCTGTTGCAT (site ACAAGACCTAT)” to “ACAAGACCTTGGGTTCTAACCTGTTGCAT (site TTCTAGTCTTA)”, the “recombinant barcode read abundance (log10)” value falls from 1.47 to 0.0713.

Compared with “ACAATACCTTGGGTTCTAACCTGTTGCCT (site ACAATACCTAG)”, “ACAATACCTTGGGTTCTAACCTGTTGCCT (site ATAATACCTAG)” is lower in “recombinant barcode read abundance (log10)” value: 1.16 for the first, 0.143 for the second.

Going from “ACAATAGCTTGGGTTCTAACCTGTTGCTG (site ACAATAGCTCA)” to “ACAATAGCTTGGGTTCTAACCTGTTGCTG (site ACACTAGCTCA)”, the “recombinant barcode read abundance (log10)” value falls from 0.738 to 0.0138.

“ACAATAGCTTGGGTTCTAACCTGTTGCTG (site ACAGTAGCTCA)” and “ACAATAGCTTGGGTTCTAACCTGTTGCTG (site ACATTAGCTCA)” are within 0.2 log units of each other in “recombinant barcode read abundance (log10)” value: 0.0118 for the first, 0.0649 for the second.

First: ACAATGACTTGGGTTCTAACCTGTTGCCT (site ACAATGACTAG)
Second: ACAATGACTTGGGTTCTAACCTGTTGCCT (site ACAGTGACTAG)
The “recombinant barcode read abundance (log10)” value of the first is higher: 0.904 for the first, 0.132 for the second.

“ACACCGCCTTGGGTTCTAACCTGTTGCCT (site ACACCGCCTAG)” and “ACACCGCCTTGGGTTCTAACCTGTTGCCT (site CCACCGCCTAG)” are within 0.2 log units of each other in “recombinant barcode read abundance (log10)” value: 0.299 for the first, 0.118 for the second.

“ACACCGCCTTGGGTTCTAACCTGTTGCCT (site GCACCGCCTAG)” and “ACACCGCCTTGGGTTCTAACCTGTTGCCT (site TCACCGCCTAG)” are within 0.2 log units of each other in “recombinant barcode read abundance (log10)” value: 0.192 for the first, 0.118 for the second.

Compared with “ACACGTGCTTGGGTTCTAACCTGTTGCGA (site ACACGTGCTTC)”, “ACACGTGCTTGGGTTCTAACCTGTTGCGA (site CAGAAGTCTAA)” is lower in “recombinant barcode read abundance (log10)” value: 1.46 for the first, 0.215 for the second.

First: ACACTAGCTTGGGTTCTAACCTGTTGCTG (site ACAATAGCTCA)
Second: ACACTAGCTTGGGTTCTAACCTGTTGCTG (site ACACTAGCTCA)
The “recombinant barcode read abundance (log10)” value of the first is lower: 0.313 for the first, 1.19 for the second.

First: ACACTAGCTTGGGTTCTAACCTGTTGCTG (site ACAGTAGCTCA)
Second: ACACTAGCTTGGGTTCTAACCTGTTGCTG (site ACATTAGCTCA)
The “recombinant barcode read abundance (log10)” value of the first is higher: 0.445 for the first, 0.0774 for the second.

First: ACAGAGACTTGGGTTCTAACCTGTTGCGC (site ACAAAGACTGC)
Second: ACAGAGACTTGGGTTCTAACCTGTTGCGC (site ACACAGACTGC)
The “recombinant barcode read abundance (log10)” value of the first is higher: 0.372 for the first, 0.127 for the second.

First: ACAGAGACTTGGGTTCTAACCTGTTGCGC (site ACAGAGACTGC)
Second: ACAGAGACTTGGGTTCTAACCTGTTGCGC (site ACATAGACTGC)
The “recombinant barcode read abundance (log10)” value of the first is higher: 1.46 for the first, 0.221 for the second.

First: ACAGCCTCTTGGGTTCTAACCTGTTGCCT (site ACAGCCTCTAG)
Second: ACAGCCTCTTGGGTTCTAACCTGTTGCCT (site ACAGGCTCTAG)
The “recombinant barcode read abundance (log10)” value of the first is higher: 2.84 for the first, 0.156 for the second.

First: ACAGGCTCTTGGGTTCTAACCTGTTGCCT (site ACAGCCTCTAG)
Second: ACAGGCTCTTGGGTTCTAACCTGTTGCCT (site ACAGGCTCTAG)
The “recombinant barcode read abundance (log10)” value of the first is lower: 0.0406 for the first, 1.82 for the second.

First: ACAGGTACTTGGGTTCTAACCTGTTGCCT (site ACAGGTACTAG)
Second: ACAGGTACTTGGGTTCTAACCTGTTGCCT (site CCAGGTACTAG)
The “recombinant barcode read abundance (log10)” value of the first is higher: 1.18 for the first, 0.428 for the second.

First: ACAGGTACTTGGGTTCTAACCTGTTGCCT (site GCAGGTACTAG)
Second: ACAGGTACTTGGGTTCTAACCTGTTGCCT (site TCAGGTACTAG)
The “recombinant barcode read abundance (log10)” value of the first is lower: 0.0917 for the first, 0.456 for the second.

First: ACAGGTCCTTGGGTTCTAACCTGTTGCGA (site ACAGGTCCTTC)
Second: ACAGGTCCTTGGGTTCTAACCTGTTGCGA (site GTCATGTCTCA)
The “recombinant barcode read abundance (log10)” value of the first is higher: 3.05 for the first, 0 for the second.

Compared with “ACAGTATCTTGGGTTCTAACCTGTTGCTG (site ACAGTATCTCA)”, “ACAGTATCTTGGGTTCTAACCTGTTGCTG (site TGCAATACTAT)” is lower in “recombinant barcode read abundance (log10)” value: 0.479 for the first, 0 for the second.

Going from “ACATAGTCTTGGGTTCTAACCTGTTGCCT (site ACATAGTCTAG)” to “ACATAGTCTTGGGTTCTAACCTGTTGCCT (site AGATACTCTAG)”, the “recombinant barcode read abundance (log10)” value falls from 1.75 to 0.0816.

Compared with “ACATATCCTTGGGTTCTAACCTGTTGCGT (site ACATATCCTAC)”, “ACATATCCTTGGGTTCTAACCTGTTGCGT (site ACCTACCCTAC)” is lower in “recombinant barcode read abundance (log10)” value: 1.78 for the first, 0.0409 for the second.

Compared with “ACATGAACTTGGGTTCTAACCTGTTGCCT (site ACATGAACTAG)”, “ACATGAACTTGGGTTCTAACCTGTTGCCT (site ACCTGAACTAG)” is lower in “recombinant barcode read abundance (log10)” value: 1.47 for the first, 0.0918 for the second.

“ACATGAACTTGGGTTCTAACCTGTTGCCT (site ACGTGAACTAG)” and “ACATGAACTTGGGTTCTAACCTGTTGCCT (site ACTTGAACTAG)” are within 0.2 log units of each other in “recombinant barcode read abundance (log10)” value: 0.0989 for the first, 0.101 for the second.

First: ACATGCACTTGGGTTCTAACCTGTTGCAT (site ACATGAACTAT)
Second: ACATGCACTTGGGTTCTAACCTGTTGCAT (site ACATGCACTAT)
The “recombinant barcode read abundance (log10)” value of the first is lower: 0.0673 for the first, 1.05 for the second.

“ACATGCACTTGGGTTCTAACCTGTTGCAT (site ACATGGACTAT)” and “ACATGCACTTGGGTTCTAACCTGTTGCAT (site ACATGTACTAT)” are within 0.2 log units of each other in “recombinant barcode read abundance (log10)” value: 0.0168 for the first, 0.116 for the second.

First: ACATGTCCTTGGGTTCTAACCTGTTGCAT (site ACATGTCCTAA)
Second: ACATGTCCTTGGGTTCTAACCTGTTGCAT (site ACATGTCCTAC)
The “recombinant barcode read abundance (log10)” value of the first is lower: 0.374 for the first, 1.24 for the second.

First: ACATGTCCTTGGGTTCTAACCTGTTGCAT (site ACATGTCCTAG)
Second: ACATGTCCTTGGGTTCTAACCTGTTGCAT (site ACATGTCCTAT)
The “recombinant barcode read abundance (log10)” value of the first is lower: 0.137 for the first, 1.99 for the second.

Going from “ACATTGTCTTGGGTTCTAACCTGTTGCCT (site ACATTGTCTAG)” to “ACATTGTCTTGGGTTCTAACCTGTTGCCT (site ACCTTGTCTAG)”, the “recombinant barcode read abundance (log10)” value falls from 1.73 to 0.0705.

First: ACATTGTCTTGGGTTCTAACCTGTTGCCT (site ACGTTGTCTAG)
Second: ACATTGTCTTGGGTTCTAACCTGTTGCCT (site ACTTTGTCTAG)
The “recombinant barcode read abundance (log10)” value of the first is lower: 0.0669 for the first, 0.284 for the second.

“ACATTTACTTGGGTTCTAACCTGTTGCCT (site ACATTTACTAG)” and “ACATTTACTTGGGTTCTAACCTGTTGCCT (site TCATATACTAG)” are within 0.2 log units of each other in “recombinant barcode read abundance (log10)” value: 0.0855 for the first, 0.242 for the second.

Compared with “ACATTTCCTTGGGTTCTAACCTGTTGCAT (site ACATTTCCTAT)”, “ACATTTCCTTGGGTTCTAACCTGTTGCAT (site TAGAACTCTGC)” is lower in “recombinant barcode read abundance (log10)” value: 0.8 for the first, 0.105 for the second.

“ACCAAAGCTTGGGTTCTAACCTGTTGCCA (site ACCAAAGCTTG)” and “ACCAAAGCTTGGGTTCTAACCTGTTGCCA (site ACCACAGCTAG)” are within 0.2 log units of each other in “recombinant barcode read abundance (log10)” value: 0.115 for the first, 0.137 for the second.

“ACCAAATCTTGGGTTCTAACCTGTTGCCG (site ACCAAATCTCG)” and “ACCAAATCTTGGGTTCTAACCTGTTGCCG (site ACCAAATCTTA)” are within 0.2 log units of each other in “recombinant barcode read abundance (log10)” value: 0.0782 for the first, 0.0479 for the second.

First: ACCAAGACTTGGGTTCTAACCTGTTGCCG (site ACCAAGACTCG)
Second: ACCAAGACTTGGGTTCTAACCTGTTGCCG (site TCCAAGACTCT)
The “recombinant barcode read abundance (log10)” value of the first is higher: 0.373 for the first, 0.00901 for the second.
